This note sets out measurements from EP1076558B1, “2-PHENYL-1-[-(2-AMINOETHOXY)-BENZYL -INDOLE IN COMBINATION WITH ESTROGENS” (Wyeth, priority 1998, dated 1999).

Marks after values point to notes of the source that are not given here.

One test deals with Ovariectomized Rat. Put plainly: 6-Week Ovariectomized Rat Model. Conditions: ovx rats, daily x7 days/week, mean; for BMD L4 / BMD Proximal Tibia: following 5 weeks of treatment; for Body Weight / Cholesterol / Uterine Weight: following 6 weeks of treatment. It is filed as in vivo. The text has this: Female Sprague Dawley CD rats, ovx or sham ovx, were obtained 1 day after surgery from Taconic Farm (weight range 240 - 275 g). They were housed 3 or 4 rats/cage in a room on a 14/10 (light/dark) schedule and provided with food (Purina 500 rat chow) and water ad libitum. Treatment for all studies began 1 day after the animals arrival and dosed 5 or 7 days per week as indicated for 6 weeks. A group of age matched sham operated rats not receiving any treatment served as an intact, estrogen replete control group for each study. All treatments were prepared in 1% tween 80 in normal saline at defined concentrations so that the treatment volume was 0.1mL/100g body weight. 17-beta estradiol was dissolved in corn oil (20 uG/mL) and delivered subcutaneously, 0.1 mL/rat. All dosages were adjusted at three week intervals according to group mean body weight measurements.
Five weeks after the initiation of treatment and one week prior to the termination of the study, each rat was evaluated for bone mineral density (BMD). The BMD's of the proximal tibiae (PT) and fourth lumbar vertabrae (L4) were measured in anesthetized rats using a dual energy X-ray absorptiometer (Eclipse XR-26, Norland Corp. Ft. Atkins, WI). The dual energy X-ray absorptiometer (DXA) measurements for each rat were performed as follows: Fifteen minutes prior to DXA measurements, the rat was anesthetized with an intraperitoneal injection of 100 mg/kg ketamine (Bristol Laboratories, Syracuse, NY) and 0.75 mg/kg acepromazine (Aveco, Ft.Dodge, IA). The rat was placed on an acrylic table under the DXA scanner perpendicular to its path; the limbs were extended and secured with paper tape to the surface of the table. A preliminary scan was performed at a scan speed of 50 mm/second with a scan resolution of 1.5 mm X 1.5 mm to determine the region of interest in PT and L4. Small subject software was employed at a scan speed of 10mm/second with resolution of 0.5 mm X 0.5 mm for final BMD measurements. The software allows the operator to define a 1.5 cm wide area to cover the total length of L4. The BMDs for respective sites were computed by the software as a function of the attenuation of the dual beam (46.8 KeV and 80 KeV) X-ray generated by the source underneath the subject and the detector travelling along the defined area above the subject. The data for BMD values (expressed in g/cm2) and individual scans were stored for statistical analysis. One week after BMD evaluation the rats were sacrificed by carbon dioxide suffocation and blood collected for cholesterol determination. The uteri were removed and the weights taken. Total cholesterol is determined using a Boehringer-Mannheim Hitachi 911 clinical analyzer using the Cholesterol/HP kit. Statitstics were compared using one-way analysis of variance with Dunnet's test.

For a further test, the system named is Ishikawa cells. Briefly: Ishikawa Cell Alkaline Phosphatase Assay. It is filed as cell-based, human. Conditions: for % Activation: percent of response related to 1 nM 17β-estradiol, 48 h. How it is done: Cells were treated for 48 h prior to assay. […] Sample population for at each dose was n=8. […] Plates are placed at -80°C for a minimum of 15 minutes. Plates are thawed at 37°C followed by the addition of 150μL of 0.1 M Tris-HCl, pH 9.8, containing 4 mM para-nitrophenylphosphate (pNPP) to each well (final concentration. 3 mM pNPP). Absorbance and slope calculations were made using the […] Application program (Bio-Tek Instruments, Inc., Winooski, VT). […] Various compounds were assayed for estrogenic activity by the alkaline phosphatase method and corresponding ED50 values (95% C.I.) were calculated. The four listed in the following were used as as reference standards: A description of these methods is described by Holinka, […]., Kuramoto, H. and Gurpide, E. (1986) Effects of steroid hormones and antisteroids on alkaline phosphatase activity in human endometrial cancer cells (Ishikawa Line). Cancer Research, 46:2771-2774, and by […]. and […] simple and sensitive microtiter plate estrogen bioassay based on stimulation alkaline phosphatase in Ishikawa cells; […] Endocrinology, 6:2757-2762.

Setting [1] is: with 1 nM 17β-estradiol (antiestrogen test).

As for `Cc1c(-c2ccc(O)cc2)n(Cc2ccc(OCCN3CCCCCC3)cc2)c2ccc(O)cc12` [Example No. 98, 1-[4-(2-Azepan-1-yl-ethoxy)-benzyl]-2-(4-hydroxy-phenyl)-3-methyl-1H-indol-5-ol], in the test with Ovariectomized Rat (0.3mg/kg, p.o.), the “BMD L4” value is recorded as 0.173 mg/cm^2, the “BMD Proximal Tibia” value is 0.210** mg/cm^2, the “Body Weight” value is reported as 46.8 g and the Cholesterol is 59.0** mg/dl. In addition, in the test with Ovariectomized Rat (0.3mg/kg, p.o.), the “Uterine Weight” value amounted to 149.3 mg. For the same compound, the “% Activation” value with Ishikawa cells (compound alone) was 1% activity (1% with 1 nM 17β-estradiol). Also, the “% Activation” value in the test with Ishikawa cells (setting [1]) is listed as 1% activity (1% with 1 nM 17β-estradiol).

As for `O=C(c1ccc(OCCN2CCCCC2)cc1)c1c(-c2ccc(O)cc2)sc2cc(O)ccc12` [raloxifene], in the test on Ovariectomized Rat (3mg/kg, p.o.), the “BMD L4” value came out at 0.170 mg/cm^2, the “BMD Proximal Tibia” value is reported as 0.207** mg/cm^2, the “Body Weight” value is on record as 25.3** g and the Cholesterol is 55.0** mg/dl. The “Uterine Weight” value in the test on Ovariectomized Rat (3mg/kg, p.o.) is given as 191.6** mg. Besides, the “% Activation” value with Ishikawa cells (compound alone) is 5% activity (5% with 1 nM 17β-estradiol). Besides, the “% Activation” value in the test on Ishikawa cells (setting [1]) was 5% activity (5% with 1 nM 17β-estradiol).

Regarding `C[C@]12CC[C@@H]3c4ccc(O)cc4CC[C@H]3[C@@H]1CC[C@@H]2O` [17β-estradiol], the “Body Weight” value in the test on Ovariectomized Rat (2µg/rat, s.c.) was 33.1** g. The EC50 in the test with Ishikawa cells (Homo sapiens, Ishikawa, estrogenic activity by the alkaline phosphatase method, reference standards, read-out: ED50 values (95% C.I.)) was […]. The “% Activation” value with Ishikawa cells (compound alone) came to […].
